Measured values: ChEMBL document CHEMBL1201862, “PubChem BioAssay data set” (2004)
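Step 1: Grow cells in 96-well plates. Step 2: Expose to compound for 48 hours at 5 concentrations. Step 3: Interpolate endpoints linearly; if unreached, use highest concentration. Here, GI50 denotes the concentration required for 50% inhibition of growth.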 The source made the active and inactive calls. Rule as the data show it: active = GI50 up to about 1.1 µM and inactive = higher.

Columns and labels:
Test in all cases: inhibition of tumour cell growth, NCI panel, 48 h
SF-295 = system: SF-295
TK-10 = system: TK-10
K562 = system: K562
NCI-H460 = system: NCI-H460
SF-539 = system: SF-539
OVCAR-8 = system: OVCAR-8
UACC-62 = system: UACC-62
CAKI-1 = system: CAKI-1
MOLT-4 = system: MOLT-4
M14 = system: M14
RXF 393 = system: RXF 393
SW-620 = system: SW-620
HT-29 = system: HT-29
786-0 = system: 786-0
HL-60 = system: HL-60
HCT-116 = system: HCT-116
SNB-75 = system: SNB-75
UACC-257 = system: UACC-257
OVCAR-5 = system: OVCAR-5
SNB-19 = system: SNB-19
A498 = system: A498
CCRF-CEM = system: CCRF-CEM
OVCAR-3 = system: OVCAR-3
EKVX = system: EKVX
OVCAR-4 = system: OVCAR-4
HCC 2998 = system: HCC 2998
KM12 = system: KM12
U-251 = system: U-251
HOP-62 = system: HOP-62
NCI-H522 = system: NCI-H522
MDA-MB-435 = system: MDA-MB-435
Hs-578T = system: Hs-578T
MCF7 = system: MCF7
MDA-MB-231 = system: MDA-MB-231
HOP-92 = system: HOP-92
Malme-3M = system: Malme-3M
DU-145 = system: DU-145
SF-268 = system: SF-268
ACHN = system: ACHN
SK-OV-3 = system: SK-OV-3
SK-MEL-5 = system: SK-MEL-5
LOX IMVI = system: LOX IMVI
PC-3 = system: PC-3
NCI-H226 = system: NCI-H226
HCT-15 = system: HCT-15
SK-MEL-28 = system: SK-MEL-28
BT-549 = system: BT-549
RPMI-8226 = system: RPMI-8226
NCI/ADR-RES = system: NCI/ADR-RES
NCI-H23 = system: NCI-H23
SK-MEL-2 = system: SK-MEL-2
SR = system: SR
SN12C = system: SN12C
MDA-N = system: MDA-N
IGROV-1 = system: IGROV-1
A549 = system: A549
UO-31 = system: UO-31
COLO 205 = system: COLO 205

COc1cc(C2c3cc4c(cc3OC(NCc3ccccc3)C2C)OCO4)cc(OC)c1OC (centres undefined)
GI50 (SF-295): 219 nM (active)
GI50 (TK-10): 20200 nM (inactive)
GI50 (K562): 305 nM (active)
GI50 (NCI-H460): 394 nM (active)
GI50 (SF-539): 273 nM (active)
GI50 (OVCAR-8): 482 nM (active)
GI50 (UACC-62): 409 nM (active)
GI50 (CAKI-1): 288 nM (active)
GI50 (MOLT-4): 653 nM (active)
GI50 (M14): 442 nM (active)
GI50 (RXF 393): 206 nM (active)
GI50 (SW-620): 331 nM (active)
GI50 (HT-29): 337 nM (active)
GI50 (786-0): 357 nM (active)
GI50 (HL-60): 277 nM (active)
GI50 (HCT-116): 364 nM (active)
GI50 (SNB-75): 177 nM (active)
GI50 (UACC-257): 6920 nM (inactive)
GI50 (OVCAR-5): 1090 nM (active)
GI50 (SNB-19): 452 nM (active)
GI50 (A498): 667 nM (active)
GI50 (CCRF-CEM): 390 nM (active)
GI50 (OVCAR-3): 298 nM (active)
GI50 (EKVX): 2560 nM (inactive)
GI50 (OVCAR-4): 644 nM (active)
GI50 (HCC 2998): 687 nM (active)
GI50 (KM12): 377 nM (active)
GI50 (U-251): 390 nM (active)
GI50 (HOP-62): 553 nM (active)
GI50 (NCI-H522): 339 nM (active)
GI50 (MDA-MB-435): 102 nM (active)
GI50 (Hs-578T): 279 nM (active)
GI50 (MCF7): 439 nM (active)
GI50 (MDA-MB-231): 303 nM (active)
GI50 (HOP-92): 2000 nM (inactive)
GI50 (Malme-3M): 254 nM (active)
GI50 (DU-145): 406 nM (active)
GI50 (SF-268): 933 nM (active)
GI50 (ACHN): 1010 nM (active)
GI50 (SK-OV-3): 476 nM (active)
GI50 (SK-MEL-5): 261 nM (active)
GI50 (LOX IMVI): 551 nM (active)
GI50 (PC-3): 240 nM (active)
GI50 (NCI-H226): 853 nM (active)
GI50 (HCT-15): 543 nM
GI50 (SK-MEL-28): 4040 nM (inactive)
GI50 (BT-549): 631 nM (active)
GI50 (RPMI-8226): 381 nM (active)
GI50 (NCI/ADR-RES): 258 nM (active)
GI50 (NCI-H23): 417 nM (active)
GI50 (SK-MEL-2): 675 nM (active)
GI50 (SR): 241 nM (active)
GI50 (SN12C): 697 nM (active)
GI50 (MDA-N): 97.3 nM (active)
GI50 (IGROV-1): 448 nM (active)
GI50 (A549): 631 nM (active)
GI50 (UO-31): 504 nM (active)
GI50 (COLO 205): 252 nM (active)

CC1CN(C)c2ccccc2N=C1NN (centres undefined)
GI50 (SF-295): > 100000 nM (inactive)
GI50 (TK-10): > 100000 nM (inactive)
GI50 (K562): 88300 nM (inactive)
GI50 (NCI-H460): > 100000 nM (inactive)
GI50 (OVCAR-8): > 100000 nM (inactive)
GI50 (UACC-62): > 100000 nM (inactive)
GI50 (CAKI-1): > 100000 nM (inactive)
GI50 (MOLT-4): > 100000 nM (inactive)
GI50 (M14): > 100000 nM (inactive)
GI50 (RXF 393): 217 nM (active)
GI50 (SW-620): > 100000 nM (inactive)
GI50 (HT-29): > 100000 nM (inactive)
GI50 (786-0): > 100000 nM (inactive)
GI50 (HL-60): > 100000 nM (inactive)
GI50 (HCT-116): > 100000 nM (inactive)
GI50 (UACC-257): > 100000 nM (inactive)
GI50 (OVCAR-5): > 100000 nM (inactive)
GI50 (SNB-19): > 100000 nM (inactive)
GI50 (A498): > 100000 nM (inactive)
GI50 (CCRF-CEM): 87500 nM (inactive)
GI50 (OVCAR-3): > 100000 nM (inactive)
GI50 (EKVX): > 100000 nM (inactive)
GI50 (OVCAR-4): > 100000 nM (inactive)
GI50 (KM12): > 100000 nM (inactive)
GI50 (U-251): > 100000 nM (inactive)
GI50 (HOP-62): > 100000 nM (inactive)
GI50 (NCI-H522): > 100000 nM (inactive)
GI50 (MDA-MB-435): > 100000 nM (inactive)
GI50 (Hs-578T): > 100000 nM (inactive)
GI50 (MDA-MB-231): > 100000 nM (inactive)
GI50 (Malme-3M): > 100000 nM (inactive)
GI50 (DU-145): > 100000 nM (inactive)
GI50 (SF-268): > 100000 nM (inactive)
GI50 (ACHN): > 100000 nM (inactive)
GI50 (SK-OV-3): > 100000 nM (inactive)
GI50 (SK-MEL-5): > 100000 nM (inactive)
GI50 (PC-3): > 100000 nM (inactive)
GI50 (NCI-H226): > 100000 nM (inactive)
GI50 (HCT-15): > 100000 nM
GI50 (SK-MEL-28): > 100000 nM (inactive)
GI50 (BT-549): > 100000 nM (inactive)
GI50 (RPMI-8226): > 100000 nM (inactive)
GI50 (NCI/ADR-RES): > 100000 nM (inactive)
GI50 (NCI-H23): > 100000 nM (inactive)
GI50 (SK-MEL-2): > 100000 nM (inactive)
GI50 (SN12C): > 100000 nM (inactive)
GI50 (MDA-N): > 100000 nM (inactive)
GI50 (IGROV-1): > 100000 nM (inactive)
GI50 (A549): > 100000 nM (inactive)
GI50 (UO-31): > 100000 nM (inactive)
GI50 (COLO 205): > 100000 nM (inactive)
